The assay concerns the target T1, recombinant human histamine N-methyltransferase (rhHNMT) (Homo sapiens, UniProt P50135).
T1 construct: gene HNMT
In words: recombinant enzyme assay, LC-MS/MS of histamine and methylhistamine; Lineweaver-Burk analysis. The class given is biochemical.

Results on one compound are retold here after paper PMC11226696, “Ergothioneine promotes longevity and healthy aging in male mice” (GeroScience, 2024).

T1 sequence (P50135 whole entry): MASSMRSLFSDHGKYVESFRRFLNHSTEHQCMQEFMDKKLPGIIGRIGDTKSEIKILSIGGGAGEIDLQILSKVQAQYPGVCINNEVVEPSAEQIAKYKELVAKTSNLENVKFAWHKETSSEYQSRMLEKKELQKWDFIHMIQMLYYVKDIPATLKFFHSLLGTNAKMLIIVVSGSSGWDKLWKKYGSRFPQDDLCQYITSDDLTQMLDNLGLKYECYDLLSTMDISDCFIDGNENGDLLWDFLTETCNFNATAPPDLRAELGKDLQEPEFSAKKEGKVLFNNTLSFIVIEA

In the case of `C[N+](C)(C)[C@@H](Cc1c[nH]c(=S)[nH]1)C(=O)[O-]` [ERGO, ergothioneine], the “recombinant enzyme assay, LC-MS/MS of histamine and methylhistamine; Lineweaver-” value is listed as “Lineweaver–Burk analysis revealed that ERGO competitively inhibited rhHNMT against histamine (Fig. 6c)”.
